These are literature values, as cited in paper PMC11327090, “The Nectin family ligands, PVRL2 and PVR, in cancer immunology and immunotherapy” (Frontiers in Immunology, 2024).

One data set has as its system Myeloma cells. On the set-up: method as in PMID 19098271. The following applies: treated myeloma cells.
The test system of a further data set is breast cancer cell lines. Also noted: method as in PMID 30039180. The note with it: in vitro.
In data set [1] the test system is non-small cell lung cancer. On the set-up: method as in PMID 35576957. The following applies: phase II trial.

For `COc1cccc2c1C(=O)c1c(O)c3c(c(O)c1C2=O)C[C@@](O)(C(=O)CO)C[C@@H]3O[C@H]1C[C@H](N)[C@H](O)[C@H](C)O1` [Adriamycin], the “PVRL2 and PVR expression” value with Myeloma cells is “upregulate PVRL2 and PVR expression”. The PVR expression result in the data set with breast cancer cell lines is listed as “increases PVR expression”.
In the case of `CC(C)C[C@H](NC(=O)[C@H](Cc1ccccc1)NC(=O)c1cnccn1)B(O)O` [bortezomib], the “PVRL2 and PVR expression” value with Myeloma cells was “upregulate PVRL2 and PVR expression”.
With `N[C@@H](Cc1ccc(N(CCCl)CCCl)cc1)C(=O)O` [melphalan], in the data set with Myeloma cells, the “PVRL2 and PVR expression” value is “upregulate PVRL2 and PVR expression”.
Turning to “placebo plus atezolizumab: anti-PD-L1 antibody atezolizumab with placebo, comparator arm of the phase II trial”, in data set [1], the objective response rate is 16.2%. In addition, the Median progression-free survival in data set [1] (95% CI in brackets) is on record as 3.6 months.
